“Also recorded” adds a separate entry of the source. Read-outs that look alike come from different tables or passages of the source. Where a SMILES comes first, the peptide text is derived from it.

This is an account of results in US12233061B2, “Microvascular angina” (THE UNIVERSITY COURT OF THE UNIVERSITY OF GLASGOW, priority 2019, dated 2025).

Data set [1] concerns coronary microvascular endothelial function. The following applies: 10 mg PO daily for 6 months; IC-ACh; cited from earlier work.
For data set [2] the following is noted: cited from earlier work.
The target in data set [3] is T1, ETA receptor (Homo sapiens, UniProt P25101).
T1 construct: Small peripheral resistance vessels (<400 μm) were carefully dissected from fresh biopsies using a light microscope; from tissue; host or cells: small peripheral resistance arteries from gluteal skin fat biopsies of angina patients
T1 sequence (P25101 21-427): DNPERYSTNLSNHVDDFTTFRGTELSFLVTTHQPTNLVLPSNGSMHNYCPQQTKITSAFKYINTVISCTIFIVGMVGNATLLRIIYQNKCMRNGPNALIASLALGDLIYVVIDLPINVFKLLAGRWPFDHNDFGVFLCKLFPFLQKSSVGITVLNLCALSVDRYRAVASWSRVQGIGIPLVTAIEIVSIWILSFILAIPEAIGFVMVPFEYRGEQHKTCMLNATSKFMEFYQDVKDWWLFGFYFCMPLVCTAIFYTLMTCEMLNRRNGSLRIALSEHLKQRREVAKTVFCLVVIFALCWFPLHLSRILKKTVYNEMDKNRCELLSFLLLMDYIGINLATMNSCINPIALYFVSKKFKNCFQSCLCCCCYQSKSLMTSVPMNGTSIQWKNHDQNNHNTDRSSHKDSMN
The data set can be described thus: ET-1 cumulative concentration response curves after antagonist preincubation, Schild plot pA2 (Example 3). Type of data set: cell-based. The following applies: microvessels pre-treated with antagonist.

In data set [4] the test system is human mammary resistance arteries. The following applies: compared with bosentan; cited from earlier work.
For data set [5], the system named is resistance arteries. Description: Wire myography: contractile response to constrictor agonists, relative to KPSS (Example 2). The following applies: for Emax (percentage of maximum response to KPSS solution) / pEC50: median. Type of data set: cell-based, human.
A short description of data set [6]: GTN half-life and remaining dose. The following applies: human, in vivo, other: intra-arterial; after 10 min; read-out: share of the dose bioavailable.
Data set [7] deals with T1, ETA receptor. The data set can be described thus: Paired ET-1 CCRCs with and without ETA antagonist, pKB by Schild regression (Examples 4 and 5). It counts as cell-based. The following applies: for Kb: pKB. The procedure: (§1) Ex vivo pharmacological assessment of peripheral vascular function was performed on patients who volunteered to undergo a gluteal skin fat biopsy within 4 weeks of the invasive coronary function assessment. The biopsy was obtained under sterile conditions using local anaesthesia with lidocaine (2%). Small peripheral resistance vessels (<400 μm) were carefully dissected from fresh biopsies using a light microscope. About 2 mm length vessels were mounted on 40-μm stainless steel wires for isometric myography in multi-channel myograph chambers (DMT, Denmark) filled with physiological saline solution. […] This vascular biology sub-study was an extension of our work in INOCA subjects that was previously published in this journal.^31A The detailed methods are described in the Supplementary material online, Appendix.
(§2) The peripheral vascular sensitivity to ET-1 (pEC50) and maximum vasoconstriction to ET-1 (Eumax) were determined. For the antagonist studies, the affinity (KB) of BQ123 was first determined in paired vessels from individuals and calculated using Schild regression. The pKB (−log10 KB) values were compared between each genotype as an indicator of whether or not patients of different genotypes are likely to respond equally well to an ETA antagonist used clinically.

The conditions of data set [8]: subjects with low myocardial perfusion homogeneity; cited from earlier work.
For data set [9], the system named is resistance arteries. Description: Wire myography: relaxation to dilator agonists after preconstriction with U46619 (Example 2). It counts as cell-based, human. The following applies: median; for IC50 / Emax: Homo sapiens; for Emax: read-out: Emax (maximum relaxation after preconstriction with U46619).
Data set [10] relates to small peripheral resistance vessels. Description: Wire myography by rs9349379 genotype: vasodilator response to ACh. It counts as cell-based. The following applies: Homo sapiens, 95% CI; for EC50: read-out: ACh pEC50 (converted).
Data set [11] concerns small peripheral resistance arteries. The data set can be described thus: Reversal of an established ET-1-mediated vessel constriction, wire myography. It counts as cell-based, human. The following applies: clinically relevant concentrations.
Data set [12] deals with small peripheral resistance vessels. The data set can be described thus: Wire myography by rs9349379 genotype: vasoconstriction to ET-1. The following applies: 95% CI. Type of data set: cell-based, human. The procedure:
as §1, §2

Consider `CCCCN(CCCC)C(=O)CN1C[C@H](c2ccc3c(c2)OCO3)[C@@H](C(=O)O)[C@@H]1c1ccc(OC)cc1` [atrasentan], for which the “coronary microvascular endothelial function” value in data set [1] is recorded as “improved coronary microvascular endothelial function”.
On to `Cc1cc2c(cc1CC(=O)c1sccc1S(=O)(=O)Nc1onc(C)c1Cl)OCO2` [sitaxentan], for which, in data set [2] (HFpEF patients, compared to placebo), the exercise time entry is reported as “increase in exercise time compared to placebo”. For the same compound, the hepatotoxicity result in data set [2] (in vivo) is listed as “withdrawn from development owing to hepatotoxicity”.
Turning to `CCCC[C@@H](NC(=O)[C@@H](Cc1cn(C(=O)OC)c2ccccc12)NC(=O)[C@H](CC(C)(C)C)NC(=O)N1[C@H](C)CCC[C@@H]1C)C(=O)O` [BQ788], the “effect on the ET-1 constrictor response (shift of ET-1 CCRC)” value on ETA receptor [3] is recorded as “only minimal shift in the ET-1 response; also recorded: negligible effect on the ET-1 constrictor response”.
For `CC(C)C[C@H](NC(=O)N1CCCCCC1)C(=O)N[C@H](Cc1cn(C)c2ccccc12)C(=O)N[C@H](Cc1ccccn1)C(=O)O` [FR139317], the “blocking of ET-1 induced contractions” value in data set [4] is listed as “less effective than the dual ETAR/ETBR antagonist bosentan”.
On to `CCCCC[C@H](O)/C=C/[C@@H]1[C@@H](C/C=C\CCCC(=O)O)[C@H]2CO[C@@H]1C2` [U46619], for which the figures for the “Emax (percentage of maximum response to KPSS solution)” value in the data set on resistance arteries [5] (MVA patients), in the data set on resistance arteries [5] (VSA patients) and with resistance arteries [5] (control subjects) were 143%, 141% and 109%, respectively. Further, the negative-log EC50 (pEC50) was found to be 8.0 in the data set with resistance arteries [5] (MVA patients), 7.5 in the data set with resistance arteries [5] (VSA patients) and 7.50 with resistance arteries [5] (control subjects).
Take `O=[N+]([O-])OCC(CO[N+](=O)[O-])O[N+](=O)[O-]` [GTN, glyceryl trinitrate]: the bioavailability at 10 min in [6] came out at 3%.
Take `CC(C)C[C@@H]1NC(=O)[C@@H](C(C)C)NC(=O)[C@@H]2CCCN2C(=O)[C@@H](CC(=O)O)NC(=O)[C@@H](Cc2c[nH]c3ccccc23)NC1=O` [BQ123] (HELM PEPTIDE1{L.[dW].[dD].P.[dV]}$PEPTIDE1,PEPTIDE1,1:R1-5:R2$$$V2.0): the “effect on the ET-1 constrictor response (shift of ET-1 CCRC)” value at ETA receptor [3] is reported as “also inhibits the ET-1 response; also recorded: an effect comparable to that of zibotentan”. Further, the “effect on the ET-1 CCRC and constrictor responses” value on ETA receptor [7] (all genotype groups) is “parallel rightward shift of the CCRC to ET-1 in all arteries; also recorded: fully blocked the constrictor responses in all of the groups”. Also, the antagonist equilibrium constant (Kb) on ETA receptor [7] (all genotypes pooled, mean (95% CI)) was 29.5 nM; at ETA receptor [7] (rs9349379 genotype AA, ±SEM), 85.1 nM; on ETA receptor [7] (rs9349379 genotype AG, ±SEM) it was 16.2 nM; at ETA receptor [7] (rs9349379 genotype GG, ±SEM), 38.9 nM.
`COc1cc(OC)nc(O[C@H](C(=O)O)C(OC)(c2ccccc2)c2ccccc2)n1` [darusentan]: the flow homogeneity entry in [8] was “increases flow homogeneity”.
Regarding `CC(=O)OCC[N+](C)(C)C` [ACh, Acetylcholine], the IC50 in the data set on resistance arteries [9] (MVA patients) is 79.4 nM; in the data set with resistance arteries [9] (VSA patients), 79.4 nM; with resistance arteries [9] (control subjects), 50.1 nM. In addition, the Emax in the data set on resistance arteries [9] (MVA patients) stood at 77.6%; with resistance arteries [9] (VSA patients), 79%; in the data set with resistance arteries [9] (control subjects), 98.7%; in data set [10] (genotype AA), 77.7%; in data set [10] (genotype AG), 80.2%; in [10] (genotype GG), 92.5%. Moreover, the “Emax (maximum relaxation after preconstriction with U46619)” value in the data set on resistance arteries [9] (control subjects) worked out at 98%. Further, the EC50 in [10] (genotype AA) is 52.5 nM; in data set [10] (genotype AG) it was 55 nM; in data set [10] (genotype GG) it was 110 nM.
With `COc1nc(C)cnc1NS(=O)(=O)c1cccnc1-c1ccc(-c2nnco2)cc1` [zibotentan, N-(3-Methoxy-5-methylpyrazin-2-yl)-2-[4-(1,3,4-oxadiazol-2-yl)phenyl]pyridine-3-sulfonamide], the “reversal or inhibition of an established constrictor response to ET-1” value was “concentration-dependent inhibition of an established constrictor response to ET-1; also recorded: fully reversed an established endothelin-1 vasoconstriction” in data set [11]; “concentration-dependent inhibition of an established constrictor response to ET-1; also recorded: reversed ET-1-induced vasoconstriction independently of G allele status; also recorded: reversed an established ET-1-mediated vasoconstriction; also recorded: rapidly and fully reversed the established endothelin-1 constrictor response” in [11] (listed as Zibotentan).
Regarding `CC[C@H](C)[C@H](NC(=O)[C@H](CC(=O)O)NC(=O)[C@H](CC(C)C)NC(=O)[C@H](Cc1c[nH]cn1)NC(=O)[C@@H]1CSSC[C@H](N)C(=O)N[C@@H](CO)C(=O)N[C@H]2CSSC[C@H](NC(=O)[C@H](CCC(=O)O)NC(=O)[C@H](CCCCN)NC(=O)[C@H](CC(=O)O)NC(=O)[C@H](CCSC)NC(=O)[C@H](CC(C)C)NC(=O)[C@H](CO)NC(=O)[C@H](CO)NC2=O)C(=O)N[C@@H](C(C)C)C(=O)N[C@@H](Cc2ccc(O)cc2)C(=O)N[C@@H](Cc2ccccc2)C(=O)N1)C(=O)N[C@H](C(=O)N[C@@H](Cc1c[nH]c2ccccc12)C(=O)O)[C@@H](C)CC` [ET-1], the entries for the “ET-1 Emax (maximum vasoconstriction)” value in data set [12] (genotype AA), in data set [12] (genotype AG) and in data set [12] (genotype GG) were 122.3%, 115.5% and 129.7%, respectively. The “ET-1 pEC50” value in data set [12] (genotype AA) is given as 9.34; in data set [12] (genotype AG), 9.45; in data set [12] (genotype GG) it was 9.32. The “Emax (percentage of maximum response to KPSS solution)” value in the data set on resistance arteries [5] (MVA patients) is on record as 121%; in the data set with resistance arteries [5] (VSA patients), 125%; in the data set on resistance arteries [5] (control subjects), 100%. In addition, the pEC50 in the data set on resistance arteries [5] (MVA patients) is 9.6; in the data set on resistance arteries [5] (VSA patients), 9.5; with resistance arteries [5] (control subjects) it was 9.3. In addition, the “sensitivity of resistance arteries to constrictor effects of ET-1 compared with U46619” value in the data set on resistance arteries [5] (all groups) is on record as “around 50 fold”.
